Data: ChEMBL document CHEMBL6074698, “Heteroaryl Glutarimides and Dihydrouracils as Cereblon Ligand Scaffolds for Molecular Glue Degrader Discovery” (ACS Med Chem Lett, 2024)

What was measured:
physchem [1] = conditions: PBS, pH 7.4
in vitro = conditions: human
physchem [2] = conditions: DMEM buffer, pH 7.4

Compound	half-life at 24 h (in vitro; MV4-11 cells)	half-life at 48 h (physchem [2])	half-life at 24 h (in vitro; mv4-11)	logD (physchem [1])
O=C1CCC(c2cccc3cc[nH]c23)C(=O)N1 (stereo not drawn)	–	–	–	1.4
O=C1CCN(c2ccccc2)C(=O)N1	–	–	–	0.3
O=C1CCC(c2ccnc3[nH]ncc23)C(=O)N1 (stereo not drawn)	–	–	–	-0.3
O=C1CCC(c2ccccc2)C(=O)N1 (stereo not drawn)	> 24 h	–	–	0.6
O=C1CCC(c2ccc3[nH]ncc3c2)C(=O)N1 (stereo not drawn)	–	–	–	0.3

Second part, led by results:

half-life at 24 h (in vitro; MV4-11 cells)	half-life at 48 h (physchem [2])	half-life at 24 h (in vitro; mv4-11)	Compound	logD (physchem [1])
12 h	0.9 h	–	Nc1cccc2c1CN(C1CCC(=O)NC1=O)C2=O (stereo not drawn) [LENALIDOMIDE]	–
–	0.4 h	12 h	Nc1cccc2c1C(=O)N(C1CCC(=O)NC1=O)C2=O (stereo not drawn) [POMALIDOMIDE]	1.3
3.3 h	–	–	O=C1CCC(N2C(=O)c3ccccc3C2=O)C(=O)N1 (stereo not drawn) [THALIDOMIDE]	0.7
